Our source for the TGI values is PubChem BioAssay (NCI).

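Step 1: Grow cells in 96-well plates. Step 2: Expose to compound for 48 hours at 5 concentrations. Step 3: Interpolate endpoints linearly; if unreached, use highest concentration. TGI marks complete inhibition of growth.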

Common to all, as to assay: growth of human tumour cells (NCI), 48 h
For assay [1], the system named is CCRF-CEM leukemia.
Assay [2] has as its system COLO 205 colon.
Assay [3] deals with EKVX NSCLC.
Assay [4] deals with HCC-2998 colon.
In assay [5] the test system is HL-60(TB) leukemia.
For assay [6], the system named is IGROV1 ovarian.
Assay [7] relates to MALME-3M melanoma.
Assay [8] concerns MDA-MB-435.
In assay [9] the test system is OVCAR-5 ovarian.
Assay [10] concerns SF-268 CNS.
In assay [11] the test system is SK-MEL-28 melanoma.
In assay [12] the test system is SK-MEL-5 melanoma.
Assay [13] has as its system SK-OV-3 ovarian.
Assay [14] deals with SNB-75 CNS.
Assay [15] deals with SR leukemia.
Assay [16] has as its system TK-10 renal.
For assay [17], the system named is U251 CNS.
The subject of assay [18] is UACC-62 melanoma.
Assay [19] has as its system NCI-H522 lung.

Take `CC1(C)/C(=C/N=O)N(O)C(C)(C)N1O`: the TGI in assay [1], in [2], in assay [3], in [4], in [5] and in assay [6] was > 100 µM throughout. The TGI is > 100 µM in assay [7]; 54.5 µM in assay [8]; > 100 µM in assay [9]; > 100 µM in assay [10]; > 100 µM in assay [11]; > 100 µM in [12]. In addition, the TGI in assay [13], in assay [14], in assay [15], in [16], in [17] and in assay [18] was > 100 µM each time.
With `CC(C)=CCC(O)[C@](C)(O)[C@H]1[C@H](O)C[C@@]2(C)[C@@H]3CCc4cc(O)c(OC5OC(CO)C(O)C(O)C5O)cc4C3(C)C(=O)C[C@]12C` (stereo partly drawn), the TGI in assay [1], in assay [2], in [3], in assay [4], in [6] and in [7] was > 100 µM in each case. Besides, the TGI in [8], in [19], in assay [9], in assay [10], in [11] and in assay [12] was > 100 µM in each case. In addition, the TGI in [13], in assay [14], in assay [15], in assay [16], in [17] and in [18] was > 100 µM throughout.
For the compound `C1=Cc2cc3c(c4nccc(c24)N1)OCO3`, the TGI in assay [1] was > 100 µM; in assay [2], 23 µM; in assay [3], 34 µM; in assay [4] it was 28.6 µM; in assay [5] it was > 100 µM; in [6] it was 8.24 µM. Moreover, the TGI is 26 µM in assay [7]; > 56.1 µM in [8]; 26.2 µM in assay [19]; > 69.4 µM in assay [9]; 28.9 µM in [10]; > 71 µM in assay [11]. Further, the TGI was 55.9 µM in assay [13]; 28.7 µM in assay [14]; 5.78 µM in [15]; > 80.1 µM in [16]; > 100 µM in [17]; 32.2 µM in [18].
As for `CC(=O)Oc1ccc2cc(-c3ccccc3OC(C)=O)c(=O)oc2c1`, the TGI in [1] was 60.6 µM; in assay [2], > 100 µM; in assay [3] it was > 100 µM; in assay [4], > 100 µM; in assay [5] it was 24.4 µM; in assay [7], > 100 µM. Further, the TGI in assay [8] was > 100 µM; in [19], 17.9 µM; in [9], > 100 µM; in assay [10], > 100 µM; in assay [11] it was > 100 µM; in assay [14] it was 34.4 µM. Further, the TGI in assay [15] and in assay [17] was > 100 µM each time.
Consider `C[C@@H](c1ccccc1)n1c(N)c(C#N)c2ccc([N+](=O)[O-])cc2c1=O`, for which the TGI in [1] was 33 µM; in [2], 30.8 µM; in assay [4], 39.4 µM; in [5], 27.7 µM; in assay [8], 61 µM; in [10] it was > 100 µM. Further, the TGI in assay [11] amounted to 39.5 µM; in assay [12] it was 50.8 µM; in assay [14], 46.2 µM; in assay [15], 12.2 µM; in assay [16] it was 24 µM; in [17], 59.1 µM. In addition, the TGI in assay [18] amounted to 30.4 µM.
For `O=C1c2ccccc2C(=O)N1CCCCNOCCCN1C(=O)c2ccccc2C1=O`, the TGI in assay [1], in [2], in assay [3], in assay [4], in [6] and in assay [7] was > 100 µM in each case. Besides, the TGI in assay [8], in [19], in assay [9], in assay [10], in [11] and in [12] was > 100 µM in each case. The TGI in [13], in assay [14], in assay [15], in assay [16], in assay [17] and in assay [18] was > 100 µM in each case.
Regarding `C(/C=C/Nc1ccc(Oc2ccccc2)cc1)=Nc1ccc(Oc2ccccc2)cc1`, the TGI in assay [1] stood at 37 µM; in assay [2], 43.6 µM; in [3], 34.7 µM; in assay [4] it was 29.4 µM; in assay [5], 49.7 µM; in [6] it was 33 µM. Besides, the TGI in assay [7] came to 33.7 µM; in assay [8] it was 31.7 µM; in assay [19], 37.7 µM; in assay [9] it was 50.2 µM; in assay [10], 40.7 µM; in [11], 30.3 µM. The TGI amounted to 31.9 µM in assay [14], 39.7 µM in assay [15], 34.7 µM in [16] and 33.2 µM in [17].
Turning to `CCOc1ncn(-c2ccc(NC(=S)NC3OC(CO)C(O)C(O)C3O)cc2)n1` (stereo not drawn), the TGI in assay [1], in [2], in [3], in assay [4], in assay [5] and in assay [6] was > 100 µM each time. Moreover, the TGI in assay [8], in assay [19], in assay [9], in [10], in assay [11] and in assay [12] was > 100 µM throughout. The TGI in assay [13], in assay [14], in assay [15], in [16], in [17] and in assay [18] was > 100 µM throughout.
